Test results: the supplement of paper PMC4977894
Where a name gives a salt, the structure may show the parent alone. ± gives the standard deviation of the averaged measurements.

Legend:
[1] = system: Homo sapiens (human subject panel, olfactory perception); assay: perceived odor pleasantness rating (rating 0-100); higher = more pleasant
Method in brief: (§1)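 Values for familiarity, intensity and pleasantness are averaged over subjects. The panel of 55 healthy people aged 18–50 excluded the six lowest performers and rated each paraffin-oil dilution of a molecule at high and low concentrations. Ratings were made only for stimuli the subject reported smelling, on a slider converted to a 0–100 scale.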

[2] = system: Homo sapiens (human subject panel, olfactory perception); assay: perceived odor intensity rating (rating 0-100); higher = stronger perceived smell
Method in brief: as §1

[3] = system: Homo sapiens (human subject panel, olfactory perception); assay: perceived odor familiarity rating (rating 0-100); higher = more familiar
Method in brief: as §1

[4] = odor dilution in paraffin oil: 1/100,000
[5] = odor dilution in paraffin oil: 1/10,000,000
[6] = odor dilution in paraffin oil: 1/1,000
[7] = odor dilution in paraffin oil: 1/10

SMILES	perceived odor pleasantness rating [1, 4]	perceived odor pleasantness rating [1, 5]	perceived odor intensity rating [2, 4]	perceived odor intensity rating [2, 5]	perceived odor familiarity rating [3, 4]	perceived odor familiarity rating [3, 5]	perceived odor pleasantness rating [1, 6]	perceived odor intensity rating [2, 6]	perceived odor familiarity rating [3, 6]	perceived odor pleasantness rating [1, 7]	perceived odor intensity rating [2, 7]	perceived odor familiarity rating [3, 7]
CC(C)CCS [3-Methyl-1-butanethiol]	13.3 ± 18	32 ± 26	88.3 ± 14	54.1 ± 30	54.6 ± 34	46.5 ± 29	–	–	–	–	–	–
Cc1ccc(C(C)C)cc1O [Carvacrol]	53.2 ± 24	–	50.4 ± 26	–	58.8 ± 32	–	48 ± 28	74.1 ± 20	62.7 ± 31	–	–	–
Nc1ccccc1C(=O)OCCc1ccccc1 [Phenethyl anthranilate]	–	–	–	–	–	–	48.2 ± 19	15.1 ± 20	27.7 ± 23	56.9 ± 24	39.9 ± 32	50.1 ± 32
C=CCOC(=O)Cc1ccccc1 [Allyl phenylacetate]	33 ± 27	49.8 ± 28	33.8 ± 29	25.7 ± 25	44 ± 25	29.4 ± 16	–	–	–	–	–	–
C=CCOC(=O)C(CC)CC [Allyl 2-ethylbutyrate]	67 ± 19	–	33.9 ± 28	–	44.1 ± 30	–	51.5 ± 28	68.5 ± 28	51.6 ± 29	–	–	–
CCCCCCCCCCCCCC(=O)OC(C)C [Isopropyl myristate]	–	–	–	–	–	–	50.6 ± 23	20.3 ± 25	35.2 ± 26	45.4 ± 21	26 ± 27	24.4 ± 24
CCCC(=O)OCC(COC(=O)CCC)OC(=O)CCC [Tributyrin]	39.5 ± 23	–	31.9 ± 29	–	36.9 ± 30	–	22.2 ± 22	68.8 ± 28	49.9 ± 30	–	–	–
CCCCCCCC(=O)OC [Methyl caprylate]	50.1 ± 26	–	40.6 ± 29	–	40.5 ± 26	–	68.5 ± 23	47.9 ± 33	46.9 ± 32	–	–	–
CCC/C=C/C=O [2-hexenal]	53.1 ± 26	–	39.7 ± 29	–	43.1 ± 31	–	30.9 ± 26	67.4 ± 28	41.1 ± 33	–	–	–
CCSSCC [Diethyl disulfide]	28.4 ± 24	–	60.6 ± 34	–	51.2 ± 32	–	21.3 ± 27	85.9 ± 16	52.5 ± 35	–	–	–
CC1=CCC2CC1C2(C)C (stereo not drawn) [alpha-pinene]	54.4 ± 21	–	27.9 ± 30	–	41.4 ± 29	–	45.6 ± 26	61.4 ± 26	46.6 ± 31	–	–	–
CCCSSCCC [dipropyl disulfide]	40.1 ± 28	–	59.7 ± 31	–	65.5 ± 30	–	35.9 ± 26	79.9 ± 21	65.6 ± 31	–	–	–
CCCCCC(=O)CCCCC [6-Undecanone]	52.7 ± 29	–	8.22 ± 16	–	32.9 ± 32	–	49.5 ± 27	43.3 ± 30	43.3 ± 31	–	–	–
CCC1OC(=O)C(O)=C1C (configuration not stated) [5-Ethyl-3-hydroxy-4-methyl-2(5H)-furanone (replicate)]	65.2 ± 22	67.5 ± 26	44.9 ± 30	58.9 ± 32	54.2 ± 32	64.6 ± 32	–	–	–	–	–	–
COc1cnccn1 [2-Methoxypyrazine]	54.8 ± 26	–	41.6 ± 30	–	52.6 ± 30	–	37.3 ± 30	68.3 ± 29	51.9 ± 34	–	–	–
Cc1ncsc1CCO [4-Methyl-5-thiazoleethanol]	37.8 ± 24	–	48.6 ± 29	–	39.9 ± 28	–	29.6 ± 25	73.1 ± 20	56.7 ± 32	–	–	–
CC(C)O [Isopropyl alcohol]	38.3 ± 18	–	21.9 ± 23	–	36.5 ± 28	–	41.1 ± 24	11.8 ± 18	29.4 ± 29	–	–	–
CC(=O)C(C)=O [2,3-butanedione]	35.9 ± 22	–	55.8 ± 28	–	50 ± 29	–	24.5 ± 19	81.7 ± 19	49.3 ± 34	–	–	–
Cc1cnc(C)cn1 [2,5-dimethyl pyrazine]	38.5 ± 21	48.4 ± 24	50.3 ± 30	29.3 ± 31	43.8 ± 30	37.1 ± 28	–	–	–	–	–	–

SMILES	perceived odor pleasantness rating [1, 4]	perceived odor pleasantness rating [1, 5]	perceived odor intensity rating [2, 4]	perceived odor intensity rating [2, 5]	perceived odor familiarity rating [3, 4]	perceived odor familiarity rating [3, 5]	perceived odor pleasantness rating [1, 6]	perceived odor intensity rating [2, 6]	perceived odor familiarity rating [3, 6]	perceived odor pleasantness rating [1, 7]	perceived odor intensity rating [2, 7]	perceived odor familiarity rating [3, 7]
CCOC(C)OCC [Acetal]	47.9 ± 22	–	43.1 ± 33	–	35.2 ± 28	–	42.5 ± 24	48.7 ± 34	44.7 ± 28	–	–	–
C=CCOC(=O)c1ccccc1N [Allyl anthranilate]	50.7 ± 25	–	16.4 ± 19	–	33.4 ± 26	–	52 ± 27	55.1 ± 31	45.9 ± 29	–	–	–
CS(C)(=O)=O [Methyl sulfone]	–	–	–	–	–	–	47.6 ± 20	22.7 ± 25	39.4 ± 28	61.1 ± 24	42.4 ± 32	51.6 ± 29
CCCCOC=O [Butyl formate]	44.1 ± 28	–	8.38 ± 15	–	29.1 ± 29	–	45.4 ± 28	51.8 ± 32	49.7 ± 29	–	–	–
NCCc1ccc(O)cc1 [Tyramine]	–	–	–	–	–	–	58 ± 26	20.4 ± 25	35.4 ± 34	34.7 ± 28	53.2 ± 33	51 ± 31
COc1cc(C=O)ccc1O [vanillin]	–	–	–	–	–	–	84 ± 20	74.4 ± 22	80.7 ± 21	86.3 ± 15	72.1 ± 23	82.6 ± 18
CCCCCCCC(C)=O [2-Nonanone]	49.6 ± 23	–	29.4 ± 30	–	39.1 ± 31	–	60.3 ± 23	58 ± 25	52.3 ± 32	–	–	–
C=CCc1ccc(O)c(OC)c1 [eugenol]	61.8 ± 25	–	60.4 ± 26	–	59.6 ± 32	–	67.6 ± 23	74.6 ± 21	73.6 ± 26	–	–	–
CCCCC(CC)C(=O)O (configuration not stated) [2-Ethylhexanoic acid]	–	–	–	–	–	–	38.1 ± 22	47.8 ± 31	47.7 ± 28	28.4 ± 21	73.7 ± 23	46.6 ± 29
CC1CCC(=O)O1 (configuration not stated) [gamma-valerolactone]	51.3 ± 22	–	14.7 ± 20	–	29.3 ± 28	–	51.4 ± 25	26.9 ± 30	38.9 ± 31	–	–	–
CCCCC(C)O (configuration not stated) [2-hexanol]	42.1 ± 25	–	47.8 ± 32	–	38.1 ± 29	–	42.3 ± 24	71.9 ± 24	58.2 ± 28	–	–	–
CCCCCCCCOC(=O)CC(C)C [Octyl isovalerate]	54.1 ± 21	–	23.4 ± 28	–	38.3 ± 33	–	39.4 ± 22	28.9 ± 33	35.1 ± 30	–	–	–
CC(C)=CCC/C(C)=C/CO [geraniol]	62.1 ± 27	–	42.3 ± 30	–	57 ± 30	–	59.2 ± 25	71.8 ± 24	51.8 ± 31	–	–	–
CCC(=O)OCCc1ccccc1 [Phenethyl propionate]	52.6 ± 25	–	26.4 ± 27	–	51.1 ± 30	–	54.6 ± 27	49.9 ± 34	54.6 ± 32	–	–	–
CCCCCCC#CC(=O)OC [Methyl 2-nonynoate]	58.5 ± 29	–	55.3 ± 30	–	55.3 ± 28	–	65 ± 27	71.1 ± 21	61.9 ± 33	–	–	–
CCCCCCCC(=O)OCCCCCC [Hexyl octanoate]	46.4 ± 22	–	16.5 ± 24	–	28 ± 23	–	52.4 ± 18	23 ± 19	42.9 ± 32	–	–	–
CCCc1ccc(O)cc1 [4-propylphenol]	47.7 ± 21	–	38.2 ± 30	–	43.6 ± 27	–	36.7 ± 24	67.3 ± 24	39 ± 33	–	–	–
CC/C=C\CCCCO [cis-5-Octen-1-ol]	66.6 ± 21	–	40.6 ± 30	–	59.5 ± 29	–	59.3 ± 28	75.7 ± 20	69.2 ± 27	–	–	–
